In paper PMC8302598, “Rapid discovery of self-assembling peptides with one-bead one-compound peptide library” (Nature Communications, 2021):
Several values for one entry are separate records, joined by “and”; a condition that tells them apart may be missing. Equal entries are not always repeated. Entries after “also recorded” stand apart in the source; their conditions may differ.

Tests used:
HeLa cells [1] = assay: Cell uptake pathway analysis (4 °C and endocytosis inhibitors); assay type: cell-based; conditions: for Cell uptake in the presence of amiloride and M-β-CD: 50 μM peptide; for Cell uptake in the presence of amiloride and M-β-CD / Cell uptake mechanism: amiloride 2 mM, M-β-CD 5 mM; for Cell uptake at 4 °C: FITC-labeled nano-assembly (3% labeled), 4 °C vs 37 °C; for Cell uptake mechanism: 50 μM, 37 or 4 °C, chlorpromazine 50 μM, CLSM, n=3
Procedure: Finally, we examined the biological effects and cellular distribution of the eight self-assembling peptides on HeLa cells. […] In order to observe the nanomaterials under fluorescent microscopy, each peptide preparation was spiked with 3% of the same peptide N-terminally labeled with FITC, and then added to HeLa cells at a final concentration of 40 μM. […] After 4 h of incubation with the peptide assemblies, the cells were observed under a fluorescent microscope (Figs. 4c, d and Supplementary 22). […] It is important to note that LDFPI nanoparticle was small (8 nm diameter) even after 4 h incubation. Its small size may in part explain its ability to pass through the nuclear pore complexes[32],[33]. […] To evaluate the cell uptake mechanism of peptide assemblies (YFTEF, ISDNL, and FGFDP) into the cytoplasm, we treated the cells at 4 °C or with various endocytosis inhibitors (Supplementary Fig. 23). […]
Supplementary Figure 23 . Cell uptake pathway analysis for FITC-labeled pentapeptide assemblies YFTEF, ISDNL and […]. a) CLSM images of HeLa cells incubated with pentapeptides (50 μ M ) at di fferent temperatures (37 or 4 °C) and in the presence of various endocytosis inhibitors, such as amiloride (2 mM), M-β-CD (5 mM), and chlorpromazine (50 μM). The scale bar is 10 μm. b) Relevant quantitative analysis of images from ‘a’. 3% of the assembled peptides was N-terminally labeled with FITC, E rror ba rs represent Standard Deviation (n=3). […]
(§1) To elucidate the cell uptake pathways of pentapeptides, we quantified the fluorescence intensity of the HeLa cells after incubation with FITC-labeled nano-assembly of YFTEF, ISDNL, FAGFT, FGFDP, at 37 and 4 °C, respectively (3% of the peptide assembly were N-terminally labeled with FITC for tracking). There were nearly no uptake of pentapeptides by HeLa cells at 4 °C, which is consistent with mechanism of cell uptake by endocytosis. We have also examined the effects of cell uptake by various endocytosis inhibitors: amiloride (2 mM, inhibitor of endocytosis), M-β-CD (5 mM, inhibitor of caveolae-dependent endocytosis), and chlorpromazine (50 μM, inhibitor of clathrin-dependent endocytosis).
(§2) (1 picture or pasted object on this page, not shown here)
Figure R11. Cell uptake pathway detection. a) CLSM images of HeLa cells incubated with pentapeptides (50 μM) at different temperatures (37 or 4 °C) and in the presence of various endocytosis inhibitors, such as amiloride (2 mM), M-13-CD (5 mM), and chlorpromazine(50 μM), respectively. The scale bar is 10 μm. b) Relevant quantitative analysis in ‘a’. […]

[2] = Turbidity test (transmittance spectra); assay type: physicochemical; conditions: 20 μM peptide in water
Procedure: To further confirm the peptide assembling in water, the solutions of pentapeptide were diluted to 20 μM for turbidity test.

HeLa cells [3] = assay: Time-dependent co-localization of FITC-labeled peptides with lysosomes (CLSM); assay type: cell-based; conditions: 50 μM; for Pearson correlation coefficient, peptide vs lysosomes, 2 h: peptide for 2 h; for Pearson correlation coefficient, peptide vs lysosomes, 4 h: peptide for 2 h and DMEM for 2 h; for Pearson correlation coefficient, peptide vs lysosomes, 8 h: peptide for 2 h and DMEM for 6 h
Procedure: Supplementary Figure 24. a) Time-dependent (2, 4, 8 h) CLSM images for monitoring and quantitatively analyzing uptake of fluorescent peptide assemblies (YFTEF, ISDNL, and FGFDP at 50 μM) by HeLa cells. The scale bar is 10 μm. b) Corresponding colocalization analysis of images from ‘a’. […]
Regarding the entrance of nanoparticles into HeLa cells, we have carried out additional experiments to address reviewer’s concern. To track the biodistribution of these peptides in the cytosol, peptides YFTEF, ISDNL and FGFDP were labeled by addition of FITC-labeled peptides (FITC-YFTEF, FITC-ISDNL, FITC-FGFDP) at 3% level, respectively, prior to self-assembly, and then incubated with HeLa cells for 2 h. The incubated cells were then washed with PBS three times and further incubated with Dulbecco's modified eagle medium without peptide for another 2 and 6 h. The lysosomes of the cells were stained with red fluorescence after 2 (peptide for 2 h), 4 (peptide for 2 h and DMEM for 2 h), or 8 h (peptide for 2 h and DMEM for 6 h) incubation, followed by CLSM observation.
For ISDNL, good co-localization (Pearson correlation coefficient: 0.92) between peptides and lysosomes […]
lysosomes (colocalization from 0.92 at 2 h, to 0.76 at 4 h and 0.69 at 8 h).
ISDNL based nanoparticles could escape from lysosomes over time.
For YFTEF, good co-localization (yellow fluorescence) between YFTEF (green fluorescence) and with […]
The co-localization efficiency for YFTEF and lysosomes remained high over time (4 h, 0.93; 8 h, 0.91).
For FGFDP, the Pearson correlation coefficient of lysosome was determined to be about 0.7 for 2 (0.74), 4 (0.79), 8 h (0.72). It seems that FGFDP might have escaped from lysosomes prior to the 2 h time point.
In order to confirm this hypothesis, we did the co-localization study at earlier time points: 30 min to 1 h.
The results reveal that FGFDP increased the distribution in the lysosome from 30 min (Pearson correlation coefficient: 0.59) to 1 h (Pearson correlation coefficient: 0.94), and then decreased to 0.74 at 2h. These […]
escape from lysosomes sometime between 1-2 h.

HeLa cells [4] = assay: Cell uptake efficiency by fluorescence of lysed cells; assay type: cell-based; conditions: HeLa cells incubated with peptides 4 h, fluorescence quantified
Procedure: and FGFDP entered lysosome and then escaped. The ISDNL escaped in 4 h, and FGFDP escaped between 1-2 h. Both ISDNL and FGFDP had capability of lysosomal escape, which may be useful for gene or nucleic acid delivery, as implied by the reviewer.
Figure R10. a. Time-dependent CLSM images for monitoring and quantitatively analyzing HeLa cells incubated with 50 μM pentapeptide nano-assembly of YFTEF, ISDNL, and FGFDP, b. corresponding co-localization analysis of experiment shown in “a”.
To confirm how efficient the peptides (YFTEF, ISDNL, and FGFDP) enter living cells, HeLa cells were incubated with peptides for 4 h, the cells were then lysed and fluorescence quantified to calculate the […]
Table R2. Cell uptake efficiency of peptides. […]
as §1, §2

[5] = FITC-labeled peptide/Lyso-Tracker co-localization

Substance | Transmittance at 400 nm [2] [%] | Cell uptake efficiency (HeLa cells [4]) [%] | Cell uptake in the presence of amiloride and M-β-CD (HeLa cells [1]) | Cell uptake at 4 °C (HeLa cells [1]) | Cell uptake mechanism (HeLa cells [1]) | Pearson correlation coefficient, peptide vs lysosomes, 30 min (HeLa cells [3]; 3% FITC-labeled peptide, 30 min) | Pearson correlation coefficient, peptide vs lysosomes, 1 h (HeLa cells [3]; 3% FITC-labeled peptide, 1 h) | Pearson correlation coefficient, peptide vs lysosomes, 2 h (HeLa cells [3]; 3% FITC-labeled peptide) | Time of escape from lysosomes (HeLa cells [3]; [5]) | Pearson correlation coefficient, peptide vs lysosomes, 4 h (HeLa cells [3]) | Pearson correlation coefficient, peptide vs lysosomes, 8 h (HeLa cells [3]) | Retention in lysosomes (HeLa cells [3]; [5])
FAGFT [self-assembling pentapeptide identified from OBOC library] |  |  | significantly decreased | nearly no uptake |  |  |  |  |  |  |  | 
ISDNL [self-assembling pentapeptide identified from OBOC library] |  | 2.2 | significantly decreased | nearly no uptake | caveolae-dependent endocytosis and micropinocytosis |  |  | 0.92 |  | 0.76 | 0.69 | 
YFTEF [self-assembling pentapeptide identified from OBOC library] | 98 | 3.9 |  | nearly no uptake | clathrin dependent endocytosis |  |  | 0.92 |  | 0.93 | 0.91 | remained in lysosomes at 8 h; also recorded: remained in lysosomes for 8 h without obvious escape

The next lines start with results.

Transmittance at 400 nm [2] [%] | Cell uptake efficiency (HeLa cells [4]) [%] | Substance | Cell uptake in the presence of amiloride and M-β-CD (HeLa cells [1]) | Cell uptake at 4 °C (HeLa cells [1]) | Cell uptake mechanism (HeLa cells [1]) | Pearson correlation coefficient, peptide vs lysosomes, 30 min (HeLa cells [3]; 3% FITC-labeled peptide, 30 min) | Pearson correlation coefficient, peptide vs lysosomes, 1 h (HeLa cells [3]; 3% FITC-labeled peptide, 1 h) | Pearson correlation coefficient, peptide vs lysosomes, 2 h (HeLa cells [3]; 3% FITC-labeled peptide) | Time of escape from lysosomes (HeLa cells [3]; [5]) | Pearson correlation coefficient, peptide vs lysosomes, 4 h (HeLa cells [3]) | Pearson correlation coefficient, peptide vs lysosomes, 8 h (HeLa cells [3]) | Retention in lysosomes (HeLa cells [3]; [5])
88 |  | FFVDF [self-assembling pentapeptide identified from OBOC library, forms nanofibers] |  |  |  |  |  |  |  |  |  | 
 | 4.8 | FGFDP [self-assembling pentapeptide identified from OBOC library] |  | nearly no uptake | both caveolae-dependent and clathrin-dependent endocytosis | 0.59 | 0.94 | 0.74 | 1 to 2 h and ~1.5 h | 0.79 | 0.72 | 
